Laboratory results taken from ChEMBL document CHEMBL1817542, “Aromatic phosphonates inhibit the lysophospholipase D activity of autotaxin” (Bioorg Med Chem Lett, 2011).
Calls of active or inactive are those of the source. The rule behind the calls is not given here.

Key:
Autotaxin [1] = biological target: T1, Autotaxin (Homo sapiens, UniProt Q13822); assay: Inhibition of human recombinant ATX lysophospholipase activity expressed in insect sf9 cells using FS-3 fluorogenic substrate preincubated for 10 mins measured after 5 and 25 mins by fluorometric analysis
Autotaxin [2] = biological target: T1, Autotaxin; assay: Inhibition of human recombinant ATX lysophospholipase activity expressed in insect sf9 cells using FS-3 fluorogenic substrate at 10 uM preincubated for 10 mins measured after 5 and 25 mins by fluorometric analysis
[3] = Aqueous solubility of the compound; type: physicochemical; conditions: buffer

## CCCCCCC(=O)Nc1ccc(C(O)P(=O)(O)O)cc1.NC1CCCCC1 (stereo not given)
Autotaxin [1]
  Ki: 1010 nM

## CCCCCCCCCC(=O)Nc1ccc(CP(=O)(O)O)cc1.NC1CCCCC1
Autotaxin [1]
  Ki: 18 nM

## CCCCCCCCCCCCCC(=O)Nc1ccc(C(Br)P(=O)(O)O)cc1.NC1CCCCC1 (stereo not given)
Autotaxin [1]
  Ki: 8.1 nM

## CCOP(=O)(Cc1ccc(N)cc1)OCC
Autotaxin [2]
  inhibition: inactive
[3]
  solubility: soluble

## CCCCCCCCCC(=O)Nc1ccc(C(F)P(=O)(O)O)cc1.NC1CCCCC1 (stereo not given)
Autotaxin [1]
  Ki: 72 nM

## CCCCCCC(=O)Nc1ccc(C(F)P(=O)(O)O)cc1.NC1CCCCC1 (stereo not given)
Autotaxin [1]
  Ki: 834 nM

## COCCOCCOCCC(=O)Nc1ccc(CP(=O)(O)O)cc1.NC1CCCCC1
Autotaxin [2]
  inhibition: inactive

## CCCCCCCCCCCCCC(=O)Nc1ccc(C(O)P(=O)(O)O)cc1.NC1CCCCC1 (stereo not given)
Autotaxin [1]
  Ki: 24 nM

## CCCCCCCCCCCCCC(=O)Nc1ccc(CP(=O)(O)O)cc1.NC1CCCCC1
Autotaxin [1]
  Ki: 9 nM
[3]; read-out: solubility
  solubility: 1000 µg/mL

## CCCCCCCCCC(=O)Nc1ccc(C(O)P(=O)(O)O)cc1.NC1CCCCC1 (stereo not given)
Autotaxin [1]
  Ki: 24.2 nM
[3]; read-out: solubility
  solubility: 4000 µg/mL

## CCCCCCCCCCCCCC(=O)Nc1ccc(C(F)P(=O)(O)O)cc1.NC1CCCCC1 (stereo not given)
Autotaxin [1]
  Ki: 6.1 nM

## CCCCCCC(=O)Nc1ccc(CP(=O)(O)O)cc1.NC1CCCCC1
Autotaxin [1]
  Ki: 512 nM
